Consider one compound from patent publication US9474790B2, “Stable, protracted GLP-1/glucagon receptor co-agonists for medical use” (Novo Nordisk A/S, priority 2013, dated 2016).

Numbered stars: 1 amine (or outer) side, 2 acyl side, 3 side chain; on linkers, the order of the positions; unused ones are H or OH. Square brackets hold non-standard residues; d marks the D form. Side chains are listed from the residue outwards. Peptide text beside a SMILES is read from it. * marks the point of attachment. C18 diacid = O=C(O)CCCCCCCCCCCCCCCCC(=O)*; γGlu = O=C(O)[C@H](CCC(=O)[*:2])N[*:1]; AEEA = NCCOCCOCC(=O)O; Aib = CC(C)(N)C(=O)O

Assay [1] deals with T1, human GLP-1 receptor (Homo sapiens, UniProt P43220).
T1 construct: expressed in transfected cells; host or cells: BHK cells (parent BHKTS13), clone FCW467-12A/KZ10-1, with CRE luciferase
The assay is described as follows: GLP-1 receptor potency, CRE luciferase reporter gene assay in BHK cells. Type of assay: cell-based. To be noted: BHK cells expressing human GLP-1 receptor, read-out: EC50 GLP-1R. The method, boiled down:
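Potency as cAMP-driven firefly luciferase signal after 3 h, 37° C exposure to 10-fold dilutions (final 1×10EE-13–1×10EE-6 M). Stable hGLP-1R/CRE-luc BHK clone, 5×10EE3 cells/well, medium containing 2% ovalbumin and 0.2% Pluronic F-68; EC50 (pM) from variable-slope non-linear regression.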
(In general: In a reporter assay the amount or activity of a reporter protein is the signal.)

In assay [2] the target is T1, human GLP-1 receptor. The assay is described as follows: GLP-1 receptor binding, 125I-GLP-1 displacement SPA on isolated membranes. To be noted: displacement of 125I-GLP-1 from membranes; read-out: IC50 GLP-1R. In outline: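 Test derivatives, serially diluted, competed with 125I-GLP-1(7-36)NH2 for the human GLP-1 receptor on BHK membranes, read by WGA-bead scintillation proximity after 2 h at 30°C, pH 7.4 HEPES/EGTA/MgCl2 buffer. Final serum albumin was either ≤0.001% or 2.0%; IC50 from non-linear fit.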
Background: Loss of bound radioactivity is the signal in a displacement assay; it reports binding, not function.

For the next assay, the target named is T2, human glucagon receptor (Homo sapiens, UniProt P47871).
T2 construct: expressed in transfected cells; host or cells: BHK cells (parent BHK570, CRE luciferase clone BHK/KZ10-20-48), clone pLJ6'-4-25
The assay is described as follows: Glucagon receptor potency, CRE luciferase reporter gene assay in BHK cells. Type of assay: cell-based. To be noted: BHK cells expressing human glucagon receptor, read-out: EC50 GlucR. The protocol:
The purpose of this example was to test the potency, of the glucagon derivatives of the invention, in vitro. The in vitro potency is the measure of human GLP-1 receptor or glucagon receptor activation, respectively, in a whole cell assay.
In vitro potency was determined by measuring the response of human GLP-1 or glucagon receptor, respectively, in a reporter gene assay. The assay was performed in a stably transfected BHK cell line that expresses either the human GLP-1 receptor or the human glucagon receptor and contains the DNA for the cAMP response element (CRE) coupled to a promoter and the gene for firefly luciferase (CRE luciferase). […] When assay incubation was completed, the luciferase substrate (luciferin) was added and the enzyme converted luciferin to oxyluciferin and produces bioluminescence. The luminescence was measured as the readout for the assay.
The cells used in this assay (clone pLJ6′-4-25) were BHK cells with BHK570 as a parent cell line expressing the CRE luciferase gene (clone BHK/KZ10-20-48) and were established by further transfection with the human glucagon receptor (clone pLJ6′ in pHZ-1 vector).
The cells were cultured at 5% CO2 in DMEM medium with 10% FBS, 1×GlutaMAX, 1 mg/ml G418, 240 nM MTX (methotrexate) and 1% pen/strep (penicillin/streptomycin). They were aliquoted and stored in liquid nitrogen. Before each assay, an aliquot was taken up and washed three times in PBS before being suspended at the desired concentration in assay medium. For 96-well plates the suspension was made to give a final concentration of 5×10EE3 cells/well.
The following chemicals were used in the assay: Pluronic F-68 (10%) (Gibco 2404), ovalbumin (Sigma A5503), DMEM w/o phenol red (Gibco 11880-028), 1 M Hepes (Gibco 15630), Glutamax 100× (Gibco 35050) and steadylite plus (PerkinElmer 6016757).
Assay Medium consisted of DMEM w/o phenol red, 10 mM Hepes, 1× GlutaMAX, 2% Ovalbumin and 0.2% Pluronic F-68.
Cell stocks were thawed in a 37° C. water bath. Cells were washed three times in PBS. The cells were counted and adjusted to 5×10EE3 cells/50 μl (1×10EE5 cells/ml) in Assay Medium. A 50 μl aliquot of cells was transferred to each well in the assay plate.
Stocks of the test compounds and reference compounds were diluted to a concentration of […] in Assay Medium. Compounds were diluted 10-fold to give the following concentrations: 2×10EE-6 M, 2×10EE-7 M, 2×10EE-8 M; 2×10EE-9 M, 2×10EE-10 M, 2×10EE-11 M, 2×10EE-12 M and 2×10EE-13 M. For each compound a blank assay medium control was also included.
A 50 μl aliquot of compound or blank was transferred from the dilution plate to the assay plate. Compounds were tested at the following final concentrations: 1×10EE-6 M, 1×10EE-7 M, 1×10EE-8 M; 1×10EE-9 M, 1×10EE-10 M, 1×10EE-11 M and 1×10EE-12 M and 1×10EE-13 M.
The assay plate was incubated for 3 h in a 5% CO2 incubator at 37° C. The assay plate was removed from the incubator and allowed to stand at room temperature for 15 min. A 100 μl aliquot of steadylite plus reagent was added to each well of the assay plate (reagent is light sensitive). Each assay plate was covered with aluminum foil to protect it from light and shaken for 30 min at room temperature. Each assay plate was read in a Perkin Elmer TopCount NXT instrument.
The data from the TopCount instrument was transferred to GraphPad Prism software. The software performed a non-linear regression (log(agonist) vs response-Variable slope (four parameter)). EC50 values were calculated by the software and reported in pM.

T1 sequence (P43220 24-463): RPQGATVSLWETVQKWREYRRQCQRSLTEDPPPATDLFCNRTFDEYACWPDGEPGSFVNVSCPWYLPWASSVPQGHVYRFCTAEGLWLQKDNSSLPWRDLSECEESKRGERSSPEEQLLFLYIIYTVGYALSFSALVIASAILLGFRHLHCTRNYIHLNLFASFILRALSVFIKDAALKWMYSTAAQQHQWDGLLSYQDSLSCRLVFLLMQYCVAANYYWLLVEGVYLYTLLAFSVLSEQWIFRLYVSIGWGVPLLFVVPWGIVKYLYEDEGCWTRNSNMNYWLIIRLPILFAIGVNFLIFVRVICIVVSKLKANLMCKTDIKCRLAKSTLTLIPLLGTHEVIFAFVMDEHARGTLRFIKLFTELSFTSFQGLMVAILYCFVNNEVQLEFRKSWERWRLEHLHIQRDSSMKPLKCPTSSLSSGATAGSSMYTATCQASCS
T2 sequence (P47871 26-477): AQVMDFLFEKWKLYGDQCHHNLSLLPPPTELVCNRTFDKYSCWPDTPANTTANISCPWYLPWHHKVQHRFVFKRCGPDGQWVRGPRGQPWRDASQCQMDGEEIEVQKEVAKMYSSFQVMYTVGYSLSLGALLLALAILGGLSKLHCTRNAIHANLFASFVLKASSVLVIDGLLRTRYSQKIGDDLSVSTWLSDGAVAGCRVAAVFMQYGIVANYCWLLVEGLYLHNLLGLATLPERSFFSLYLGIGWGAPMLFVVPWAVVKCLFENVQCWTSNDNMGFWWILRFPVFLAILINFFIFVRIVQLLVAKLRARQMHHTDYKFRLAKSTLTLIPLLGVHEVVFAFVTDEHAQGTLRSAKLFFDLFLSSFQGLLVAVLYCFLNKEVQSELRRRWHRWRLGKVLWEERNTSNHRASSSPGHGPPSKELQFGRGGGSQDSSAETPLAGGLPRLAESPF

As a reminder, the EC50 is the concentration needed to bring the measured effect to its halfway point. For orientation: IC50 means the point on the concentration scale where inhibition reaches its midpoint. Consider `CC(C)C[C@H](NC(=O)[C@H](CC(=O)O)NC(=O)[C@H](CC(C)C)NC(=O)[C@H](Cc1ccc(O)cc1)NC(=O)[C@H](CCCCN)NC(=O)[C@H](CO)NC(=O)[C@@H](NC(=O)[C@H](CC(=O)O)NC(=O)[C@H](CO)NC(=O)[C@@H](NC(=O)[C@H](Cc1ccccc1)NC(=O)[C@@H](NC(=O)CNC(=O)[C@H](CCC(N)=O)NC(=O)C(C)(C)NC(=O)[C@@H](N)Cc1c[nH]cn1)[C@@H](C)O)[C@@H](C)O)C(C)C)C(=O)N[C@@H](CCCNC(=N)N)C(=O)N[C@@H](CCCNC(=N)N)C(=O)N[C@@H](C)C(=O)N[C@@H](CCC(N)=O)C(=O)N[C@@H](CC(=O)O)C(=O)N[C@@H](Cc1ccccc1)C(=O)N[C@H](C(=O)N[C@@H](CCC(N)=O)C(=O)N[C@@H](Cc1c[nH]c2ccccc12)C(=O)N[C@@H](CC(C)C)C(=O)N[C@@H](CC(C)C)C(=O)N[C@@H](CCCCNC(=O)COCCOCCNC(=O)COCCOCCNC(=O)CC[C@H](NC(=O)CC[C@H](NC(=O)CC[C@H](NC(=O)CCCCCCCCCCCCCCCCC(=O)O)C(=O)O)C(=O)O)C(=O)O)C(=O)N[C@H](C(N)=O)[C@@H](C)O)C(C)C` [Example 71, N^ε28-[2-[2-[2-[[2-[2-[2-[[(4S)-4-carboxy-4-[[(4S)-4-carboxy-4-[[(4S)-4-carboxy-4-(17-carboxyheptadecanoylamino)butanoyl]amino]butanoyl]amino]butanoyl]amino]ethoxy]ethoxy]acetyl]amino]ethoxy]ethoxy]acetyl]-[Aib2,Val10,Leu16,Leu27,Lys28]-Glucagon amide] (H-H[Aib]QGTFTSDVSKYLDLRRAQDFVQWLLK([AEEA-AEEA-γGlu-γGlu-γGlu-C18 diacid])T-NH2), for which the EC50 on human GLP-1 receptor [1] turned out to be 0.004 nM; on human glucagon receptor it was 0.017 nM. In addition, the IC50 at human GLP-1 receptor [2] was 0.7 nM.
